Measurements reported in patent publication US7943786B2, “Process for preparing amorphous (4R-cis)-6-[2-[3-phenyl-4-(phenylcarbamoyl)-2-(4-fluorophenyl)-5-(1-methylethyl)-pyrrol-1-yl]-ethyl]-2,2-dimethyl-[1,3]-dioxane-4-yl-acetic acid” (priority 2003, dated 2011).

How the values were obtained:
Format in all cases: physicochemical
[1] = Comparison of solubility of amorphous and crystalline form in aprotic organic solvents; conditions: e.g. diisopropyl ether, methyl cyclohexane, isopropanol
[2] = Dissolution in tetrahydrofuran (clarity of solution)
Solubility in water = assay: Solubility in water

Structure (SMILES)	solubility of amorphous versus crystalline form [1]	appearance of solution on dissolution in THF [2]	solubility in water (Solubility in water)
CC(C)c1c(C(=O)Nc2ccccc2)c(-c2ccccc2)c(-c2ccc(F)cc2)n1CC[C@@H]1C[C@H](CC(=O)OC(C)(C)C)OC(C)(C)O1 [amorphous compound of the formula I, (4R-cis)-6-[2-[3-phenyl-4-(phenylcarbamoyl)-2-(4-fluorophenyl)-5-(1-methylethyl)-pyrrol-1-yl]-ethyl]-2,2-dimethyl-[1,3]-dioxane-4-yl-acetic acid-tertiary butyl ester]	better soluble	perfectly clear solution	–
CC(C)c1c(C(=O)Nc2ccccc2)c(-c2ccccc2)c(-c2ccc(F)cc2)n1CC[C@@H]1C[C@H](CC(=O)OC(C)(C)C)OC(C)(C)O1 [compound of the formula I, (4R-cis)-6-[2-[3-phenyl-4-(phenylcarbamoyl)-2-(4-fluorophenyl)-5-(1-methylethyl)-pyrrol-1-yl]-ethyl]-2,2-dimethyl-[1,3]-dioxane-4-yl-acetic acid-tertiary butyl ester]	–	–	very poor solubility in water or is practically insoluble in water
CC(C)c1c(C(=O)Nc2ccccc2)c(-c2ccccc2)c(-c2ccc(F)cc2)n1CC[C@@H]1C[C@H](CC(=O)OC(C)(C)C)OC(C)(C)O1 [crystalline compound of the formula I, (4R-cis)-6-[2-[3-phenyl-4-(phenylcarbamoyl)-2-(4-fluorophenyl)-5-(1-methylethyl)-pyrrol-1-yl]-ethyl]-2,2-dimethyl-[1,3]-dioxane-4-yl-acetic acid-tertiary butyl ester]	–	some dimness appeared	–
